According to the supplement of paper PMC13207355:

Columns and labels:
Conditions in all cases: exposure time: 72 h
E57 [1] = patient-derived glioblastoma stem cells of mesenchymal subtype; experiment: surviving fraction (nuclei count normalised to DMSO); higher = more cells surviving (less toxic)
E28 [2] = patient-derived glioblastoma stem cells of classical subtype; experiment: as above
E31 [3] = patient-derived glioblastoma stem cells of proneural subtype; experiment: as above
E34 [4] = patient-derived glioblastoma stem cells of proneural subtype; experiment: as above
E21 [5] = patient-derived glioblastoma stem cells of mesenchymal subtype; experiment: as above
FT3469 [6] = normal neural stem cell line; experiment: as above
E13 [7] = patient-derived glioblastoma stem cells of classical subtype; experiment: as above
E57 [8] = experiment: phenotypic distance (Euclidean, principal components) from DMSO controls (arbitrary units); higher = stronger morphological change
E28 [9] = experiment: as above
E31 [10] = experiment: as above
E34 [11] = experiment: as above
E21 [12] = experiment: as above
FT3469 [13] = experiment: as above
E13 [14] = experiment: as above
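Throughout, for phenotypic distance (Euclidean, principal components) from DMSO controls: cell Painting imaging in 384-well plates, CellProfiler features reduced to at least 20 principal components, Euclidean distance versus same-plate DMSO vehicle wells (0.1% v/v), median over six images per well.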
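Throughout, for surviving fraction (nuclei count normalised to DMSO): nuclei counted by high-content imaging of Hoechst-stained cells in laminin-coated 384-well plates, relative to 0.1% DMSO vehicle wells, with staurosporine as cell-death control.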

CC[C@@]1(O)C(=O)OCc2c1cc1n(c2=O)Cc2cc3cc(O)ccc3nc2-1 [Hydroxy Camptothecine]
Conditions | phenotypic distance | surviving fraction
E13 [7], 4.1 nM | – | 0.295
E13 [7], 12.3 nM | – | 0.298
E13 [7], 37 nM | – | 0.269
E13 [7], 111.1 nM | – | 0.241
E13 [7], 333.3 nM | – | 0.178
E13 [7], 1000 nM | – | 0.197
E13 [7], 3000 nM | – | 0.141
E13 [14], 4.1 nM | 5.76 | –
E13 [14], 12.3 nM | 6.4 | –
E13 [14], 37 nM | 5.69 | –
E13 [14], 111.1 nM | 6.9 | –
E13 [14], 333.3 nM | 6.25 | –
E13 [14], 1000 nM | 6.56 | –
E13 [14], 3000 nM | 6.55 | –
E21 [5], 4.1 nM | – | 0.133
E21 [5], 12.3 nM | – | 0.115
E21 [5], 37 nM | – | 0.12
E21 [5], 111.1 nM | – | 0.161
E21 [5], 333.3 nM | – | 0.135
E21 [5], 1000 nM | – | 0.106
E21 [5], 3000 nM | – | 0.119
E21 [12], 4.1 nM | 4.52 | –
E21 [12], 12.3 nM | 4.56 | –
E21 [12], 37 nM | 5.14 | –
E21 [12], 111.1 nM | 4.89 | –
E21 [12], 333.3 nM | 4.81 | –
E21 [12], 1000 nM | 5.63 | –
E21 [12], 3000 nM | 5.74 | –
E28 [2], 4.1 nM | – | 0.341
E28 [2], 12.3 nM | – | 0.331
E28 [2], 37 nM | – | 0.313
E28 [2], 111.1 nM | – | 0.331
E28 [2], 333.3 nM | – | 0.268
E28 [2], 1000 nM | – | 0.219
E28 [2], 3000 nM | – | 0.151
E28 [9], 4.1 nM | 3 | –
E28 [9], 12.3 nM | 2.79 | –
E28 [9], 37 nM | 3.94 | –
E28 [9], 111.1 nM | 2.28 | –
E28 [9], 333.3 nM | 3.33 | –
E28 [9], 1000 nM | 3.32 | –
E28 [9], 3000 nM | 3.06 | –
E31 [3], 4.1 nM | – | 0.159
E31 [3], 12.3 nM | – | 0.166
E31 [3], 37 nM | – | 0.174
E31 [3], 111.1 nM | – | 0.231
E31 [3], 333.3 nM | – | 0.223
E31 [3], 1000 nM | – | 0.203
E31 [3], 3000 nM | – | 0.201
E31 [10], 4.1 nM | 3.54 | –
E31 [10], 12.3 nM | 2.94 | –
E31 [10], 37 nM | 3.69 | –
E31 [10], 111.1 nM | 2.96 | –
E31 [10], 333.3 nM | 3.02 | –
E31 [10], 1000 nM | 4.3 | –
E31 [10], 3000 nM | 4.23 | –
E34 [4], 4.1 nM | – | 0.494
E34 [4], 12.3 nM | – | 0.492
E34 [4], 37 nM | – | 0.608
E34 [4], 111.1 nM | – | 0.446
E34 [4], 333.3 nM | – | 0.509
E34 [4], 1000 nM | – | 0.496
E34 [4], 3000 nM | – | 0.569
E34 [11], 4.1 nM | 3.37 | –
E34 [11], 12.3 nM | 3.46 | –
E34 [11], 37 nM | 1.84 | –
E34 [11], 111.1 nM | 2.93 | –
E34 [11], 333.3 nM | 2.95 | –
E34 [11], 1000 nM | 3.66 | –
E34 [11], 3000 nM | 3.13 | –
E57 [1], 4.1 nM | – | 0.14
E57 [1], 12.3 nM | – | 0.165
E57 [1], 37 nM | – | 0.148
E57 [1], 111.1 nM | – | 0.157
E57 [1], 333.3 nM | – | 0.144
E57 [1], 1000 nM | – | 0.136
E57 [1], 3000 nM | – | 0.13
E57 [8], 4.1 nM | 6.51 | –
E57 [8], 12.3 nM | 6.72 | –
E57 [8], 37 nM | 6.63 | –
E57 [8], 111.1 nM | 5.99 | –
E57 [8], 333.3 nM | 6.28 | –
E57 [8], 1000 nM | 6.33 | –
E57 [8], 3000 nM | 5.89 | –
FT3469 [6], 4.1 nM | – | 0.616
FT3469 [6], 12.3 nM | – | 0.73
FT3469 [6], 37 nM | – | 0.51
FT3469 [6], 111.1 nM | – | 0.563
FT3469 [6], 333.3 nM | – | 0.489
FT3469 [6], 1000 nM | – | 0.442
FT3469 [6], 3000 nM | – | 0.445
FT3469 [13], 4.1 nM | 1.58 | –
FT3469 [13], 12.3 nM | 1.79 | –
FT3469 [13], 37 nM | 2.15 | –
FT3469 [13], 111.1 nM | 1.67 | –
FT3469 [13], 333.3 nM | 2.41 | –
FT3469 [13], 1000 nM | 3.08 | –
FT3469 [13], 3000 nM | 3.19 | –
